Reference: patent publication US7935503B2, “Methods for producing and using polymyxins” (University of Georgia Research Foundation, Inc., priority 2007, dated 2011)

Legend:
Assay type in all cases: cell-based
[1] = test system: Salmonella typhimurium ATCC 29629; experiment: Minimum inhibitory concentration (NCCLS dilution method), Salmonella typhimurium [sic]; settings: Salmonella typhimurium ATCC 29629 (second line, r16), Gram negative; triplicate, identical values
Method: (§1) Bacterial Strains and Culture Conditions. Paenibacillus amylolyticus C27, C25, C26, C28, and C30 were isolated from the hindgut extract of a Tipula abdominalis larva as described in Cook et al. (2007, Appl. Environ. Microbiol., 73:5683-5686), and grown aerobically at 28° C. on tryptic soy agar (TSA) and in tryptic soy both (TSB) or Davis minimal media broth (MM) (Atlas, 1993, Handbook of Microbiological Media, Boca Raton, Fla., CRC Press, Inc.). Escherichia coli ATCC 11303 was grown aerobically at 37° C. on Luria-Bertani agar or in broth. Enterococcus faecalis ATCC 19433, Pseudomonas aeruginosa ATCC 27853, Salmonella typhimurium ATCC 29629, Shigella fexneri ATCC 9199, Bacillus subtilis ATCC 6633, Staphylococcus aureus ATCC 6538, and Streptococcus pyogenes ATCC 19615 were grown aerobically at 37° C. on TSA.
Minimum inhibitory concentrations. Both P. amylolyticus C27 peaks with antibacterial activity from HPLC purification of 500 mL minimal media culture were combined. […]

[2] = test system: Streptococcus pyogenes ATCC 19615; experiment: Minimum inhibitory concentration (NCCLS dilution method); settings: Streptococcus pyogenes ATCC 19615, Gram positive; triplicate, identical values
Method: as §1
(§2) Minimum inhibitory concentrations. Both P. amylolyticus C27 peaks with antibacterial activity from HPLC purification of 500 mL minimal media culture were combined. For analysis of polymyxin B (Sigma-Aldrich, St. Louis, Mo.), polymyxin E (Sigma-Aldrich, St. Louis, Mo.), and the P. amylolyticus C27 antibacterials, MIC determinations were performed according to the National Committee for Clinical Laboratory Standards (NCCLS) (Table 2) (NCCLS, 2003, Methods for dilution antimicrobial susceptibility tests for bacteria that grow aerobically; approved standard—sixth edition. NCCLS document M7-A6. Wayne, Pa., National Committee for Clinical Laboratory Standards).

[3] = test system: Pseudomonas aeruginosa ATCC 27853; experiment: as above; settings: Pseudomonas aeruginosa ATCC 27853, Gram negative; triplicate, identical values
Method: as §1, §2

[4] = test system: Enterococcus faecalis ATCC 19433; experiment: as above; settings: Enterococcus faecalis ATCC 19433, Gram positive; triplicate, identical values
Method: as §1, §2

[5] = test system: Escherichia coli ATCC 11303; experiment: as above; settings: Escherichia coli ATCC 11303, Gram negative; triplicate, identical values
Method: as §1, §2

[6] = test system: Salmonella typhimurium ATCC 29629; experiment: as above; settings: Salmonella typhimurium ATCC 29629 (first line, r15), Gram negative; triplicate, identical values
Method: as §1, §2

[7] = test system: Staphylococcus aureus ATCC 6538; experiment: as above; settings: Staphylococcus aureus ATCC 6538, Gram positive; triplicate, identical values
Method: as §1, §2

polymyxin B gave a Minimum inhibitory concentration [1] of 4 µg/mL, a Minimum inhibitory concentration [2] of 32 µg/mL and a Minimum inhibitory concentration [3] of 4 µg/mL. It also gave a Minimum inhibitory concentration [4] greater than 128 µg/mL, a Minimum inhibitory concentration [5] of 2 µg/mL and a Minimum inhibitory concentration [6] of 4 µg/mL. The Minimum inhibitory concentration [7] was 32 µg/mL.
polymyxin E showed a Minimum inhibitory concentration [1] of 2 µg/mL, a Minimum inhibitory concentration [2] greater than 128 µg/mL and a Minimum inhibitory concentration [3] of 4 µg/mL. For the same substance, the Minimum inhibitory concentration [4] was greater than 128 µg/mL, the Minimum inhibitory concentration [5] was 2 µg/mL and the Minimum inhibitory concentration [6] was 1 µg/mL. The Minimum inhibitory concentration [7] was 128 µg/mL.
